In patent publication US7101908B2, “Bicyclic carbohydrate compounds useful in the treatment of infections caused by herpesviridae” (Kemin Pharma Europe B.V.B.A., priority 2001, dated 2006):
Converted amounts (≈) assume the structure as drawn.

Legend:
CMV AD-169 strain = test: Plaque reduction assay in HEL cells, CMV AD-169 strain; type: cell-based, human cytomegalovirus; details: human embryonic lung fibroblast (HEL) cells; for IC50: Human betaherpesvirus 5, AD169, HEL, 168 h, plaques counted on day 7, read-out: IC50 CMV AD-169 Strain (inhibitory concentration required to reduce virus plaque formation by 50%); for IC50 CMV AD-169 Strain (inhibitory concentration required to reduce virus plaque formation by 50%): plaques counted on day 7
Experimental: (§1) The compounds were screened against various pathogenic viruses and more specific the human cytomegalovirus (CMV). […] After 2 hours of incubation at 37° C., the infected cells were replenished with 0.1 ml of medium containing serial dilutions of the test compound. On day 7 the plaques were counted microscopically after staining the cells with Giemsa's solution. The minimum antiviral concentration was expressed as the dose required to inhibit virus-induced plaque formation by 50%.

CMV Davis strain = test: Plaque reduction assay in HEL cells, CMV Davis strain; type: cell-based, human cytomegalovirus; details: human embryonic lung fibroblast (HEL) cells; for IC50: Human betaherpesvirus 5, HEL, 168 h, plaques counted on day 7, read-out: IC50 CMV David Strain (inhibitory concentration required to reduce virus plaque formation by 50%)
Experimental: as §1

[1] = intravenous ganciclovir; people; cited from earlier work

Structure (SMILES) | melting point [°C] | IC50 (CMV AD-169 strain) [µg/mL] | IC50 (CMV Davis strain) [µg/mL] | IC50 CMV AD-169 Strain (inhibitory concentration required to reduce virus plaque formation by 50%) (CMV AD-169 strain) [µg/mL] | IC50 CMV David Strain (inhibitory concentration required to reduce virus plaque formation by 50%) (CMV Davis strain; plaques counted on day 7) [µg/mL] | IV recipients who have to stop treatment because of side effects [1]
CO[C@@H]1[C@@H](OC)[C@H](Cc2ccccc2)O[C@@H]2CO[C@@H](c3ccccc3)O[C@@H]12 [Compound A2] | – | 5 (≈ 13.5 µM) | 20 (≈ 54 µM) | – | – | –
CCO[C@@H]1[C@@H](OCC)[C@H](Cc2ccccc2)O[C@@H]2CO[C@@H](c3ccccc3)O[C@@H]12 [Compound A3] | 87 to 89 | 2.5 (≈ 6.27 µM) | 3.2 (≈ 8.03 µM) | 2.7 (≈ 6.78 µM) | 2.8 (≈ 7.03 µM) | –
C#CCO[C@@H]1[C@@H](OCC#C)[C@H](Cc2ccccc2)O[C@@H]2CO[C@@H](c3ccccc3)O[C@@H]12 [Compound A5] | 81 to 83 | 0.5 (≈ 1.19 µM) | 0.5 (≈ 1.19 µM) | – | – | –
Nc1nc(O)c2ncn(COC(CO)CO)c2n1 [Ganciclovir, reference compound] | – | 1.3 (≈ 5.09 µM) | 0.5 (≈ 1.96 µM) | 2.5 (≈ 9.79 µM) | – | More than 10%

The next lines start with results.

melting point [°C] | Structure (SMILES) | IC50 (CMV AD-169 strain) [µg/mL] | IC50 (CMV Davis strain) [µg/mL] | IC50 CMV AD-169 Strain (inhibitory concentration required to reduce virus plaque formation by 50%) (CMV AD-169 strain) [µg/mL] | IC50 CMV David Strain (inhibitory concentration required to reduce virus plaque formation by 50%) (CMV Davis strain; plaques counted on day 7) [µg/mL] | IV recipients who have to stop treatment because of side effects [1]
97 to 98 | CO[C@@H]1[C@@H](OC)[C@H](c2ccccc2)O[C@@H]2CO[C@@H](c3ccccc3)O[C@@H]12 [Compound A1] | 2.7 (≈ 7.58 µM) | 2 (≈ 5.61 µM) | – | – | –
135 | CO[C@@H]1[C@@H](OC)[C@H](c2ccccc2)O[C@@H]2CO[C@@H](c3ccc4ccccc4c3)O[C@@H]12 [Compound A6] | 0.47 (≈ 1.16 µM) | 0.8 (≈ 1.97 µM) | – | – | –
111 to 112 | CO[C@@H]1[C@@H](OC)[C@H](c2ccccc2)O[C@@H]2CO[C@@H](c3ccc(-c4ccccc4)cc3)O[C@@H]12 [Compound A7] | 0.8 (≈ 1.85 µM) | 0.6 (≈ 1.39 µM) | – | – | –
